In US12365901B2, “Application of mechanical-force sensitive macrophage subset in pancreatic cancer diagnosis or prognosis evaluation” (priority 2023, dated 2025):

Columns and labels:
THP-1 macrophages = assay: Elastic modulus of siRNA-transfected, PMA-induced THP-1 cells measured by nanoindenter; format: cell-based, human; conditions: compared with control group si-NC; PMA 50 ng/ml for 24 hours
Protocol: (§1) 1) Transfection of THP-1 cells: the cells were inoculated into a 24-well plate at a density of 2.5×10^5/ well. A transfection reagent was prepared: A: 50 μL of low serum culture medium (Opti-MEM I Reduced Serum Medium, Cat. No. 31985070, Gibco) was added with 3 μL of transfection reagent (Lipofectamine™ RNAiMAX Transfection Reagent, Cat. No. 13778075, Invitrogen). B: 50 μL of low serum culture medium (Opti-MEM I Reduced Serum Medium, Cat. No. 31985070, Gibco) was added with 1 μL of siRNA (RIBO BIO). A and B were mixed and incubated at room temperature for 5 minutes, and 50 μL of the mixture was added with the THP-1 cells to culture overnight.
(§2) 2) A cell suspension was collected and centrifuged at 1000 rpm and room temperature for 5 minutes, a supernatant was removed, and PMA (50 ng/ml, Cat. No. p1585, Sigma) was added to induce for 24 hours.
3) The cell culture medium was replaced by PBS, an instrument was calibrated by using a confocal dish, and then an elastic modulus of the cells was measured.

THP-1 cells = assay: Flow cytometry of CD11b and CD68 after THP-1 cells are differentiated into macrophages; format: cell-based, human; conditions: flow cytometry after PMA-induced differentiation
Protocol: as §1, §2
4) The cells were collected, centrifuged, washed with PBS once, then added with 1 μL of Fixable Viability Stain 780 (Cat No. 565388, BD), mixed evenly, incubated on ice for 20 minutes, and washed with an FACS Buffer (2% BSA in PBS) twice. The solution was added with 2.5 μL of FC blocking antibody (Cat. No. 422302, Biolegend), blocked on ice for 20 minutes, then added with 2.5 μL of CD14-BV421 (Cat. No. 563743, BD) antibody and 1 μL of CD11b-PE (Cat. No. 101207, Biolegend) antibody, incubated on ice in the dark for 20 minutes, and then washed with an FACS Buffer twice. The solution was added with 100 μL of cell fixing solution (Cat. No. 00-8222-49, eBioscience), incubated at room temperature in the dark for 40 minutes, and then washed with a prepared membrane permeation solution (Cat. No. 00-8333-56, eBioscience) twice. The cells were resuspended to 100 μL of membrane permeation solution, added with 1.5 μL of CD68-AF647 (Cat. No. 333820, Biolegend), incubated on ice in the dark for 20 minutes, then washed with the membrane permeation solution twice, resuspended to 100 μL of FACS buffer, and detected on a computer.

| Substance | elastic modulus of the THP-1 macrophages (THP-1 macrophages) | fluorescence intensity of CD11b of the THP-1 cells (THP-1 cells) | fluorescence intensity of CD68 of the THP-1 cells (THP-1 cells) |
| --- | --- | --- | --- |
| si-Ptk2b_2: siRNA targeting human Ptk2b gene: GGACGAGGACTATTACAAA (SEQID NO. 2) (listed as DNA, chemistry not given here) | significantly reduce | significantly inhibit | significantly inhibit |
| si-Ptk2b_3: siRNA targeting human Ptk2b gene: CACATGAAGTCCGATGAGA (SEQID NO. 3) (listed as DNA, chemistry not given here) | significantly reduce | significantly inhibit | significantly inhibit |
| si-Ptk2b_1: siRNA targeting human Ptk2b gene: GGATCATCATGGAATTGTA (SEQID NO. 1) (listed as DNA, chemistry not given here) | significantly reduce | significantly inhibit | significantly inhibit |
